{"source": "ChEMBL document CHEMBL4609992", "about": "“Discovery of novel small molecule induced selective degradation of the bromodomain and extra-terminal (BET) bromodomain protein BRD4 and BRD2 with cellular potencies” (Bioorg Med Chem, 2020)", "key": {"[1]": {"system": "MV4-11", "test": "Antiproliferative activity against human MV4-11 cells assessed as reduction in cell viability measured after 48 hrs by CellTiter-Glo assay", "assay_type": "functional, cell-based", "details": "MV4-11, 48 h"}, "[2]": {"system": "MOLM-13", "test": "Antiproliferative activity against human MOLM13 cells assessed as reduction in cell viability measured after 48 hrs by CellTiter-Glo assay", "assay_type": "functional, cell-based", "details": "MOLM-13, 48 h"}, "[3]": {"system": "CCRF-CEM", "test": "Growth inhibition of human CCRF-CEM cells assessed as cell growth inhibition incubated for 48 hrs by sulforhodamine B assay", "assay_type": "functional"}, "[4]": {"system": "HL-60(TB)", "test": "Growth inhibition of human HL-60(TB) cells assessed as cell growth inhibition incubated for 48 hrs by sulforhodamine B assay", "assay_type": "functional", "details": "HL-60, 48 h"}, "[5]": {"system": "SR", "test": "Growth inhibition of human SR cells assessed as cell growth inhibition incubated for 48 hrs by sulforhodamine B assay", "assay_type": "functional"}, "[6]": {"system": "NCI-H23", "test": "Growth inhibition of human NCI-H23 cells assessed as cell growth inhibition incubated for 48 hrs by sulforhodamine B assay", "assay_type": "functional", "details": "NCI-H23, 48 h"}, "[7]": {"system": "HCC 2998", "test": "Growth inhibition of human HCC2998 cells assessed as cell growth inhibition incubated for 48 hrs by sulforhodamine B assay", "assay_type": "functional", "details": "HCC 2998, 48 h"}, "[8]": {"system": "HCT-116", "test": "Growth inhibition of human HCT116 cells assessed as cell growth inhibition incubated for 48 hrs by sulforhodamine B assay", "assay_type": "functional", "details": "HCT-116, 48 h"}, "[9]": {"system": "HT-29", "test": "Growth inhibition of human HT-29 cells assessed as cell growth inhibition incubated for 48 hrs by sulforhodamine B assay", "assay_type": "functional", "details": "HT-29, 48 h"}, "[10]": {"system": "KM12", "test": "Growth inhibition of human KM12 cells assessed as cell growth inhibition incubated for 48 hrs by sulforhodamine B assay", "assay_type": "functional", "details": "KM12, 48 h"}, "[11]": {"system": "SW-620", "test": "Growth inhibition of human SW620 cells assessed as cell growth inhibition incubated for 48 hrs by sulforhodamine B assay", "assay_type": "functional", "details": "SW-620, 48 h"}, "[12]": {"system": "SF-295", "test": "Growth inhibition of human SF295 cells assessed as cell growth inhibition incubated for 48 hrs by sulforhodamine B assay", "assay_type": "functional", "details": "SF-295, 48 h"}, "[13]": {"system": "LOX IMVI", "test": "Growth inhibition of human LOXIMVI cells assessed as cell growth inhibition incubated for 48 hrs by sulforhodamine B assay", "assay_type": "functional"}, "[14]": {"system": "SK-MEL-28", "test": "Growth inhibition of human SK-MEL-28 cells assessed as cell growth inhibition incubated for 48 hrs by sulforhodamine B assay", "assay_type": "functional", "details": "SK-MEL-28, 48 h"}, "[15]": {"system": "OVCAR-8", "test": "Growth inhibition of human OVCAR8 cells assessed as cell growth inhibition incubated for 48 hrs by sulforhodamine B assay", "assay_type": "functional", "details": "OVCAR-8, 48 h"}, "[16]": {"system": "CAKI-1", "test": "Growth inhibition of human Caki1 cells assessed as cell growth inhibition incubated for 48 hrs by sulforhodamine B assay", "assay_type": "functional", "details": "CAKI-1, 48 h"}, "[17]": {"system": "SN12C", "test": "Growth inhibition of human SN12C cells assessed as cell growth inhibition incubated for 48 hrs by sulforhodamine B assay", "assay_type": "functional"}, "[18]": {"system": "TK-10", "test": "Growth inhibition of human TK10 cells assessed as cell growth inhibition incubated for 48 hrs by sulforhodamine B assay", "assay_type": "functional", "details": "TK-10, 48 h"}, "[19]": {"system": "DU-145", "test": "Growth inhibition of human DU145 cells assessed as cell growth inhibition incubated for 48 hrs by sulforhodamine B assay", "assay_type": "functional", "details": "DU-145, 48 h"}, "[20]": {"system": "MDA-MB-231", "test": "Growth inhibition of human MDA-MB-231 cells assessed as cell growth inhibition incubated for 48 hrs by sulforhodamine B assay", "assay_type": "functional", "details": "MDA-MB-231, 48 h"}, "[21]": {"system": "BT-549", "test": "Growth inhibition of human BT549 cells assessed as cell growth inhibition incubated for 48 hrs by sulforhodamine B assay", "assay_type": "functional", "details": "BT-549, 48 h"}, "[22]": {"system": "MV4-11", "test": "Antiproliferative activity against human MV4-11 cells assessed as reduction in cell viability", "assay_type": "functional, cell-based"}, "[23]": {"system": "RPMI-8226", "test": "Antiproliferative activity against human RPMI8226 cells assessed as reduction in cell viability", "assay_type": "functional, cell-based"}, "[24]": {"system": "A-375", "test": "Antiproliferative activity against human A375 cells assessed as reduction in cell viability", "assay_type": "functional, cell-based"}, "[25]": {"system": "LNCaP", "test": "Antiproliferative activity against human LNCAP cells assessed as reduction in cell viability", "assay_type": "functional, cell-based"}, "[26]": {"system": "VCaP", "test": "Antiproliferative activity against human VCaP cells assessed as reduction in cell viability", "assay_type": "functional, cell-based"}, "[27]": {"system": "COLO 205", "test": "Antiproliferative activity against human COLO205 cells assessed as reduction in cell viability", "assay_type": "functional, cell-based"}, "[28]": {"system": "DU-145", "test": "Antiproliferative activity against human DU145 cells assessed as reduction in cell viability", "assay_type": "functional, cell-based"}, "[29]": {"system": "TT", "test": "Antiproliferative activity against human TT cells assessed as reduction in cell viability", "assay_type": "functional, cell-based"}, "[30]": {"system": "NCI-H1650", "test": "Antiproliferative activity against human NCI-H1650 cells assessed as reduction in cell viability", "assay_type": "functional, cell-based"}, "[31]": {"system": "NCI-H358", "test": "Antiproliferative activity against human NCI-H358 cells assessed as reduction in cell viability", "assay_type": "functional, cell-based"}, "[32]": {"system": "MV4-11", "test": "Induction of apoptosis in human MV4-11 cells measured after 24 hrs by Annexin V-FITC/propidium iodide staining based FACScan flow cytometry", "assay_type": "functional, cell-based"}, "[33]": {"system": "MV4-11", "test": "Induction of apoptosis in human MV4-11 cells at < 100 nM measured after 24 hrs by Annexin V-FITC/propidium iodide staining based FACScan flow cytometry relative to control", "assay_type": "functional"}, "[34]": {"molecular_target": "T1, Protein cereblon/Bromodomain-containing protein 4/Cullin-4A (Homo sapiens) (UniProt O60885+Q96SW2+Q13619)", "test": "Protac activity at cereblon/cullin4A/BRD4 in human MV4-11 cells assessed as induction of BRD4 degradation at 10 nM measured after 18 hrs by Western blot analysis", "assay_type": "cell-based"}, "[35]": {"molecular_target": "T1, Protein cereblon/Bromodomain-containing protein 4/Cullin-4A (Homo sapiens)", "test": "Protac activity at cereblon/cullin4A/BRD4 in human MV4-11 cells assessed as induction of BRD4 degradation at 50 nM measured after 18 hrs by Western blot analysis relative to control", "assay_type": "cell-based"}, "[36]": {"molecular_target": "T1, Protein cereblon/Bromodomain-containing protein 4/Cullin-4A (Homo sapiens)", "test": "Protac activity at cereblon/cullin4A/BRD4 in human MV4-11 cells assessed as induction of BRD4 degradation at 1 to 500 nM measured after 18 hrs by Western blot analysis", "assay_type": "cell-based"}, "[37]": {"molecular_target": "Protein cereblon/Bromodomain-containing protein 2/Cullin-4A (Homo sapiens) (UniProt P25440+Q96SW2+Q13619)", "sequence (P25440 whole entry, looked up)": "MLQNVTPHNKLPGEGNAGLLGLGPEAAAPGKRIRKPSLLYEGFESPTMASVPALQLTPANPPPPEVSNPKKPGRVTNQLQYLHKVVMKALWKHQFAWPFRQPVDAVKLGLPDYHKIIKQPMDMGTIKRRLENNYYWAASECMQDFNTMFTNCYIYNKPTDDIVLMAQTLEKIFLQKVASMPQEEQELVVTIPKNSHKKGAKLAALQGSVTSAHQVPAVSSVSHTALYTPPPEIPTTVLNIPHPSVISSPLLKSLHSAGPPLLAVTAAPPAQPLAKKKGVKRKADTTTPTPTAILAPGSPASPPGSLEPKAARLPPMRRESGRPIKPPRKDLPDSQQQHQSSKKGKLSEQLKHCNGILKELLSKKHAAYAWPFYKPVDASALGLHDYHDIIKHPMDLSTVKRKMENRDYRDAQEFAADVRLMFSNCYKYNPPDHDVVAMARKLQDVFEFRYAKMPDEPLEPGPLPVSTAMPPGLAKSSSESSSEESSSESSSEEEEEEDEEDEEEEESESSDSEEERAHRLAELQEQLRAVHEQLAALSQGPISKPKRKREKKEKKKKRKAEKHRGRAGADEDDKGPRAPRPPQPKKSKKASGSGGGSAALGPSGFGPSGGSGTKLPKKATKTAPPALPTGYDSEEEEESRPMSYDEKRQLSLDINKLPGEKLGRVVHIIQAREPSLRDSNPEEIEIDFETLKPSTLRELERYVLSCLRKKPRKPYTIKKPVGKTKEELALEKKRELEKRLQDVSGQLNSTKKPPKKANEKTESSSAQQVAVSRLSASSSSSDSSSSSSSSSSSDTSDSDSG", "sequence (Q13619 whole entry, looked up)": "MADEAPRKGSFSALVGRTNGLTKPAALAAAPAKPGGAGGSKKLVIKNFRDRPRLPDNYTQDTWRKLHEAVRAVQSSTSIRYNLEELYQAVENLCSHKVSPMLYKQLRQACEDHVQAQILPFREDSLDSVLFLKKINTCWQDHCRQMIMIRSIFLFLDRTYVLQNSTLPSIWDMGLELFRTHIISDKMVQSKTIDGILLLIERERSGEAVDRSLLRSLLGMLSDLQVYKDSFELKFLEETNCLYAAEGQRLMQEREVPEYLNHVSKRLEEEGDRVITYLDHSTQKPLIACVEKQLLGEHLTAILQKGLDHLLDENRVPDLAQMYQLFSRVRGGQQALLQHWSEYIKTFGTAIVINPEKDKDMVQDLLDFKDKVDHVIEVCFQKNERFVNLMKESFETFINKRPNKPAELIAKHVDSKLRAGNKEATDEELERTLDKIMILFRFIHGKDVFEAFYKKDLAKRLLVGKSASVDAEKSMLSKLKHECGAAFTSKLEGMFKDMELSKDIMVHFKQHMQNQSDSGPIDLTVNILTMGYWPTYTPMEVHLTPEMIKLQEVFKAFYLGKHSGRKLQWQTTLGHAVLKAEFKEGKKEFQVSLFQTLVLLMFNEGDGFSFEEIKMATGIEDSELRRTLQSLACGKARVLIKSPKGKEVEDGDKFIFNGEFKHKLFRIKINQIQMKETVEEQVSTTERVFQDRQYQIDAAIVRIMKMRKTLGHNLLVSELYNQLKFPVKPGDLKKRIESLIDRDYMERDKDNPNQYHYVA", "sequence (Q96SW2 whole entry, looked up)": "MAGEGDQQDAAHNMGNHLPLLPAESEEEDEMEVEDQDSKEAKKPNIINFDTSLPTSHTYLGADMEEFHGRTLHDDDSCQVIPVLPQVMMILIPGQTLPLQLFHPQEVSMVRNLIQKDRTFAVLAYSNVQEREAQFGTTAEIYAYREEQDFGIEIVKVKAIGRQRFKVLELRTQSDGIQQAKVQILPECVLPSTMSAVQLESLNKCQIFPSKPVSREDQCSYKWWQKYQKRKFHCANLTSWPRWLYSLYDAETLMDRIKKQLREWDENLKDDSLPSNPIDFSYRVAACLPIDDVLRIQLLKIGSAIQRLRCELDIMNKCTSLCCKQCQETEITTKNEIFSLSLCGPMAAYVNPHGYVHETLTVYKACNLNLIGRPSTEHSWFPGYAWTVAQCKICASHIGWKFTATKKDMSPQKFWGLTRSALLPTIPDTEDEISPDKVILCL", "test": "Protac activity at cereblon/cullin4A/BRD2 in human MV4-11 cells assessed as induction of BRD2 degradation at 50 nM measured after 18 hrs by Western blot analysis", "assay_type": "cell-based"}}, "note": "pIC50: −log10 of the molar value. Calls of active or inactive are those of the source. The calls are words filed in the database; no cut-off is given here."}
{"smiles": "COc1ccccc1S(=O)(=O)Nc1ccc2c3c(cc(CCC(=O)NCCCCNc4cccc5c4C(=O)N(C4CCC(=O)NC4=O)C5=O)cc13)C(=O)N2C", "note": "(configuration not stated)", "values": [{"measurement": "pIC50", "setting": "[1]", "result": 7.91}, {"measurement": "pIC50", "setting": "[2]", "result": 7.28}, {"measurement": "GI50", "setting": "[3]", "result": 28, "unit": "nM"}, {"measurement": "GI50", "setting": "[4]", "result": 22, "unit": "nM"}, {"measurement": "GI50", "setting": "[5]", "result": 122, "unit": "nM"}, {"measurement": "GI50", "setting": "[6]", "result": 37500, "unit": "nM"}, {"measurement": "GI50", "setting": "[7]", "result": 316, "unit": "nM"}, {"measurement": "GI50", "setting": "[8]", "result": 3660, "unit": "nM"}, {"measurement": "GI50", "setting": "[9]", "result": 3770, "unit": "nM"}, {"measurement": "GI50", "setting": "[10]", "result": 675, "unit": "nM"}, {"measurement": "GI50", "setting": "[11]", "result": 249, "unit": "nM"}, {"measurement": "GI50", "setting": "[12]", "result": 3220, "unit": "nM"}, {"measurement": "GI50", "setting": "[13]", "result": 3970, "unit": "nM"}, {"measurement": "GI50", "setting": "[14]", "result": 891, "unit": "nM"}, {"measurement": "GI50", "setting": "[15]", "result": 360, "unit": "nM"}, {"measurement": "GI50", "setting": "[16]", "result": 2630, "unit": "nM"}, {"measurement": "GI50", "setting": "[17]", "result": 447, "unit": "nM"}, {"measurement": "GI50", "setting": "[18]", "result": 895, "unit": "nM"}, {"measurement": "GI50", "setting": "[19]", "result": 5910, "unit": "nM"}, {"measurement": "GI50", "setting": "[20]", "result": 32, "unit": "nM"}, {"measurement": "GI50", "setting": "[21]", "result": 78, "unit": "nM"}, {"measurement": "pIC50", "setting": "[22]", "result": 8.01}, {"measurement": "pIC50", "setting": "[23]", "result": 6.36}, {"measurement": "pIC50", "setting": "[24]", "result": 5.61}, {"measurement": "pIC50", "setting": "[25]", "result": 6.21}, {"measurement": "pIC50", "setting": "[26]", "result": 6.60}, {"measurement": "pIC50", "setting": "[27]", "result": 6.81}, {"measurement": "pIC50", "setting": "[28]", "result": 5.44}, {"measurement": "pIC50", "setting": "[29]", "result": 7.43}, {"measurement": "pIC50", "setting": "[30]", "result": 5.88}, {"measurement": "pIC50", "setting": "[31]", "result": 5.86}, {"measurement": "Activity", "setting": "[32]", "result": "Dose-dependent effect"}, {"measurement": "Activity", "setting": "[33]", "result": 80, "unit": "%"}, {"measurement": "Activity", "setting": "[34]", "result": "Active"}, {"measurement": "Activity", "setting": "[35]", "result": 100, "unit": "%"}, {"measurement": "Activity", "setting": "[36]", "result": "Active"}, {"measurement": "Activity", "setting": "[37]", "result": "Active"}]}
